Consider seven molecules from patent US20090018131A1, “QUINAZOLINE DERIVATIVES AS P13 KINASE INHIBITORS” (priority 2007, published 2009).

The experiment concerns the target T1, PI3Kα (Homo sapiens, UniProt P42336).
T1 construct: His
The experiment is described as follows: PI3K Alpha Leadseeker SPA Assay. Type of experiment: biochemical. The following applies: in at least one experimental run; read-out: IC50 value against PI3Kα. On the procedure: Compounds of the present invention were tested according to the following assays and found as inhibitors of PI3 kinases, particularly PI3Kα. The exemplified compounds were tested and found active against PI3Kα. The IC50's ranged from about 1 nM to 10 μM.
SPA imaging beads are microspheres containing scintillant which emit light in the red region of the visible spectrum. As a result, these beads are ideally suited to use with a CCD imager such as the Viewlux. The Leadseeker beads used in this system are polystyrene beads that have been coupled with polyethyleneimine. When added to the assay mixture, the beads absorb both the substrate (PIP2) and product (PIP3). Adsorbed P^33—PIP3 will cause an increase in signal, measured as ADUs (analog to digital units). This protocol details the use of the PEI-PS Leadseeker beads for assays using His-p110/p85 PI3K alpha.
Solid compounds are typically plated with 0.1 μl of 100% DMSO in all wells (except column 6 and 18) of a 384-well, flat bottom, low volume plate (Greiner 784075). The compounds are serially diluted (3-fold in 100% DMSO) across the plate from column 1 to column 12 and column 13 to column 24 and leave column 6 and 18 containing only DMSO to yield 11 concentrations for each test compound.
The assay buffer contains MOPS (pH 6.5), CHAPS, and DTT. PI3K alpha and PIP2 (L-alpha-D-myo-Phosphatidylinositol 4,5-bisphosphate [PI(4,5)P2]3-O-phospho linked, D(+)-sn-1,2-di-O-octanoylglyceryl, CellSignals # 901) are mixed and incubated in the plate with compound for 30 min prior to starting the reaction with the addition of P^33-ATP and MgCl2 (reagents added using Zoom). Enzyme-free wells (column 18) are typically done to determine the low control. PEI-PS Leadseeker beads in PBS/EDTA/CHAPS are added (by Multidrop) to quench the reaction, and the plates are allowed to incubate for at least one hour (typically overnight) before centrifugation. The signal is determined using a Viewlux detector and is then imported into curve fitting software (Activity Base) for construction of concentration response curves. The percent inhibition of activity was calculated relative to high controls (C1, 0.1 μl DMSO in column 6, rows A-P)) and low controls (C2, 5 μl of 40 uM PIP2 in buffer in column 18, rows A-P) using, 100*(1-(U1-C2)/(C1-C2)). The concentration of test compound yielding 50% inhibition was determined using the equation, y=((Vmax*x)/(K+x))+Y2, where “K” was equal to the IC50. The IC50 values were converted to pIC50 values, i.e., −log IC50 in Molar concentration.

T1 sequence (P42336 whole entry, species assumed): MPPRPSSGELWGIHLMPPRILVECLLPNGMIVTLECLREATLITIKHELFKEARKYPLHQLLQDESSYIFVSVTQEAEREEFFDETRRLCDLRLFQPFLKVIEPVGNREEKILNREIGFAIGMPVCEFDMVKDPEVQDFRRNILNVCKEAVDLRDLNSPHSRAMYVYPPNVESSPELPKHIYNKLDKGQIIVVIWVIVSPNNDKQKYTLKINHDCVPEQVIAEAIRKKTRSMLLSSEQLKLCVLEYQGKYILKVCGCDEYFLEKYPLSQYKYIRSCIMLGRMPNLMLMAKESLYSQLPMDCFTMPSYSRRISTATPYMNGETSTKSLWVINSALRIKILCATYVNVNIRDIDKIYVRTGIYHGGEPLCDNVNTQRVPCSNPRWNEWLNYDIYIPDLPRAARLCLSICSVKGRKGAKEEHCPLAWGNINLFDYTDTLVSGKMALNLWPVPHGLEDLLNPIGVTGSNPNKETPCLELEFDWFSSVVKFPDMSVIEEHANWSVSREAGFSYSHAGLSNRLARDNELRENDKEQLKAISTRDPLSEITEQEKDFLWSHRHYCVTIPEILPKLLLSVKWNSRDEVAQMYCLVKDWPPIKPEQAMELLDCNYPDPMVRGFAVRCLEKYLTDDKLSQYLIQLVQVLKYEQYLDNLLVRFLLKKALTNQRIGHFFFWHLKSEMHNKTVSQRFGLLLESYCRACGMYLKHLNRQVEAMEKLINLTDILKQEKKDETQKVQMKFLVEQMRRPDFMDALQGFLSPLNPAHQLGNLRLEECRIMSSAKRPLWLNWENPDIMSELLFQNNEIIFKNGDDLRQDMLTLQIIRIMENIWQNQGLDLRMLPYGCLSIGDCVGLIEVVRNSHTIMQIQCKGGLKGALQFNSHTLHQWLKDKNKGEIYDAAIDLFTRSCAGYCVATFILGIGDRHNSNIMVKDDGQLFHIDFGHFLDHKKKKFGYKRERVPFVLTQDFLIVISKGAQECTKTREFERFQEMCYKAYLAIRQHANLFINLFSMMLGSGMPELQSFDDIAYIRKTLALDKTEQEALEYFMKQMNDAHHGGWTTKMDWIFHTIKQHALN
T1 sequence (P27986 whole entry partner, species assumed): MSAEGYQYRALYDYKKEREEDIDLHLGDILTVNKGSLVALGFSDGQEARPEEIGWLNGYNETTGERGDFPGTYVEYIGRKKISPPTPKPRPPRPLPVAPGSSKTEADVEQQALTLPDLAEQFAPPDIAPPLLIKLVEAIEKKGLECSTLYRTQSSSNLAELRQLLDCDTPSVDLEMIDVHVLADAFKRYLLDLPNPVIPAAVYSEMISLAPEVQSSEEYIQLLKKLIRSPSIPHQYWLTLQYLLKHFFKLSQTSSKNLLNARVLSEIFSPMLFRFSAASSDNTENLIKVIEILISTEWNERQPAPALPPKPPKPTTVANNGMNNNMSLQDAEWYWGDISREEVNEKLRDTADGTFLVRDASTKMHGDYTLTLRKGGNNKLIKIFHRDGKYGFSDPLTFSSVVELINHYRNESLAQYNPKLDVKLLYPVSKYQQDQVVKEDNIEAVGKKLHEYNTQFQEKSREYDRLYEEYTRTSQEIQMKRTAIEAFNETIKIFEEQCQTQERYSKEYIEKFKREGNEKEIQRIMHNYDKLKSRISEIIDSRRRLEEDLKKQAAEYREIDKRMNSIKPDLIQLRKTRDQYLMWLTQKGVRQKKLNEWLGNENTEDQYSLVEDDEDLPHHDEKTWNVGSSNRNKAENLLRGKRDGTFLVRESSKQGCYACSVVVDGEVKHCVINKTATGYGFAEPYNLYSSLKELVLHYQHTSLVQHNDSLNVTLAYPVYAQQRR

As to `CN(C)S(=O)(=O)c1cc(-c2ccc3nc(NCCO)nc(-c4ccncc4)c3c2)cnc1N` [Example 1, 2-amino-5-[2-[(2-hydroxyethyl)amino]-4-(4-pyridinyl)-6-quinazolinyl]-N,N-dimethyl-3-pyridinesulfonamide], the half-maximal inhibitory concentration (IC50) (usually the concentration that inhibits the measured activity by half) is 7.9 nM. As to `OCc1cccc(Nc2nc(-c3ccncc3)c3cc(-c4cnc5[nH]ccc5c4)ccc3n2)c1` [Example 2, (3-{[4-(4-pyridinyl)-6-(1H-pyrrolo[2,3-b]pyridin-5-yl)-2-quinazolinyl]amino}phenyl)methanol], the IC50 amounted to 100 nM. For `CC(=O)Nc1nc(-c2ccncc2)c2cc(-c3cnc(Cl)c(NS(=O)(=O)c4ccccc4)c3)ccc2n1` [Example 6, N-[6-{6-chloro-5-[(phenylsulfonyl)amino]-3-pyridinyl}-4-(4-pyridinyl)-2-quinazolinyl]acetamide], the half-inhibitory concentration (IC50) worked out at 1.4 nM. As for `c1nc(N2CCOCC2)c2cc(-c3cnc4[nH]ccc4c3)ccc2n1` [Example 15, 4-(4-morpholinyl)-6-(1H-pyrrolo[2,3-b]pyridin-5-yl)quinazoline], the figure is 50 nM. For `NS(=O)(=O)c1cncc(-c2ccc3ncnc(N4CCCCC4)c3c2)c1` [Example 16, 5-[4-(1-piperidinyl)-6-quinazolinyl]-3-pyridinesulfonamide], the IC50 is 40 nM. With `CCN1CCN(c2ncnc3ccc(-c4cncc(NS(=O)(=O)c5ccc(F)cc5F)c4)cc23)CC1=O` [Example 61, N-{5-[4-(4-ethyl-3-oxo-1-piperazinyl)-6-quinazolinyl]-3-pyridinyl}-2,4-difluorobenzenesulfonamide] the figure was 1 nM; with `COc1ccc(Nc2ncnc3ccc(-c4cncc(NS(=O)(=O)c5ccc(F)cc5F)c4)cc23)cc1Cl` [Example 73, N-[5-(4-{[3-chloro-4-(methyloxy)phenyl]amino}-6-quinazolinyl)-3-pyridinyl]-2,4-difluorobenzenesulfonamide], 2.5 nM.
